Measured values: the supplement of paper PMC11616607

Assays:
Assay in all cases: drug sensitivity score (DSS) from 5-point dose-response viability curve (DSS (area-under-curve based score)); higher = more sensitive (stronger growth inhibition or killing); extreme values may be limits of the assay
Details in all cases: exposure time: 72 h; concentration range: 5 concentrations over 10,000-fold range
COV318 = test system: COV318
Procedure, shortened: (§1)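 For the drug sensitivity score, obtained per cell line and drug in Breeze software, larger values mean greater sensitivity. No response corresponds to a score of zero. Ovarian cancer and normal ovarian cells were seeded at 1,500 per well into 384-well plates already holding acoustically dispensed drugs (Echo 550, DMSO or water, five concentrations over a 10,000-fold range) and incubated 3 days at 37°C, 5% CO2. CellTiter-Glo luminescence on a PHERAstar FS gave the viability readout.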

Ovsaho = test system: Ovsaho
Procedure, shortened: as §1

HOSE2C = test system: HOSE2C
Procedure, shortened: as §1

Kuramochi = test system: Kuramochi
Procedure, shortened: as §1

COV362 = test system: COV362
Procedure, shortened: as §1

OVCAR8 = test system: OVCAR8
Procedure, shortened: as §1

OVCAR4 = test system: OVCAR4
Procedure, shortened: as §1

CAOV3 = test system: CAOV3
Procedure, shortened: as §1

JHOS2 = test system: JHOS2
Procedure, shortened: as §1

OV90 = test system: OV90
Procedure, shortened: as §1

OVCAR5 = test system: OVCAR5
Procedure, shortened: as §1

HOSE1C = test system: HOSE1C
Procedure, shortened: as §1

Compound | drug sensitivity score (COV318) | drug sensitivity score (Ovsaho) | drug sensitivity score (HOSE2C) | drug sensitivity score (Kuramochi) | drug sensitivity score (COV362) | drug sensitivity score (OVCAR8) | drug sensitivity score (OVCAR4) | drug sensitivity score (CAOV3) | drug sensitivity score (JHOS2) | drug sensitivity score (OV90) | drug sensitivity score (OVCAR5) | drug sensitivity score (HOSE1C)
Nc1cc(F)ccc1NC(=O)c1ccc(CNC(=O)/C=C/c2cccnc2)cc1 [Tucidinostat] | 3.9 | 3 | 10.8 | 2.1 | 0 | 8 | 1.7 | 4.3 | 3.5 | 7.2 | 7 | 14.7
CN[C@@H]1C[C@H]2O[C@@](C)([C@@H]1OC)n1c3ccccc3c3c4c(c5c6ccccc6n2c5c31)C(=O)N[C@H]4O [UCN-01] | 18.7 | 23.8 | 29.7 | 14.6 | 17.8 | 18.8 | 13.8 | 19.3 | 15.3 | 22.8 | 18.1 | 27.8
COC(=O)c1ccc2c(c1)[nH]c1ncnc(NCCCN3CCCCC3)c12 [UM729] | 0 | 0.1 | 0 | 0 | 0 | 1.6 | 0 | 0 | 0 | 0 | 1 | 0.2
COc1cc2c(NC3CCN(C(C)C)CC3)nc(C3CCCCC3)nc2cc1OCCCN1CCCC1 [UNC0638] | 0.6 | 0.3 | 0 | 0.8 | 4.1 | 3.6 | 0.9 | 0.1 | 0 | 5.4 | 3.4 | 0
COc1cc2c(NC3CCN(C(C)C)CC3)nc(N3CCC(F)(F)CC3)nc2cc1OCCCN1CCCC1 [UNC0642] | 0 | 0 | 0 | 0 | 0.9 | 0.7 | 0 | 0.2 | 0 | 4.4 | 1 | 0
O=C(c1ccc(C(=O)N2CCC(N3CCCC3)CC2)c(Nc2ccccc2)c1)N1CCC(N2CCCC2)CC1 [UNC1215] | 0 | 0 | 0 | 0 | 0 | 0 | 0 | 0 | 0 | 0 | 0 | 0
CCCCNc1ncc(C(=O)NCc2ccc(-n3ccnc3)cc2)c(NC2CCC(O)CC2)n1 (stereo not drawn) [UNC2881] | 0 | 0.8 | 0.5 | 0 | 0 | 0 | 0.1 | 0.2 | 0 | 1.2 | 0.6 | 0
NC(=O)c1cccc(-c2cccc(OC(=O)NC3CCCCC3)c2)c1 [URB597] | 0 | 0 | 0 | 0 | 0 | 0 | 0 | 0 | 0 | 0 | 0 | 0
CC(C)Nc1cc(-c2c[nH]c(C(=O)N[C@H](CO)c3cccc(Cl)c3)c2)c(Cl)cn1 [Ulixertinib] | 0.9 | 11.5 | 2.2 | 7.7 | 1.9 | 3.6 | 1.1 | 8 | 3.8 | 14 | 7.8 | 0
CC[C@@H]1CN(C(=O)NCC(F)(F)F)C[C@@H]1c1cnc2cnc3[nH]ccc3n12 [Upadacitinib] | 2.1 | 0 | 0 | 0.8 | 0.2 | 0 | 0 | 0 | 0 | 1.3 | 0 | 0
Cn1ncc(Cl)c1-c1cc(C(=O)N[C@H](CN)Cc2ccc(F)c(F)c2)oc1Cl [Uprosertib] | 0.4 | 0.6 | 2.1 | 1 | 0 | 0 | 0 | 0.9 | 0 | 0.7 | 0.9 | 3.2
CS(=O)(=O)c1ccc(-c2cnc(N)c(C(=O)Nc3ccccc3)n2)cc1 [VE-821] | 0 | 1.2 | 1.7 | 0 | 0 | 0 | 0 | 0 | 0 | 0 | 0 | 4
O=C(O)CC1CC(c2ccccc2)=NO1 (stereo not drawn) [VGX-1027] | 0 | 0 | 0 | 0 | 0 | 0 | 0 | 0 | 0 | 0 | 0 | 0
C=CC(=O)N1CC/C(=C\c2ccc(F)c([N+](=O)[O-])c2)C(=O)/C(=C/c2ccc(F)c([N+](=O)[O-])c2)C1 [VLX1570] | 12.2 | 25 | 21.4 | 18 | 9.4 | 26.8 | 18.7 | 18.7 | 17.5 | 16.8 | 17.1 | 23.3
CNC(=O)c1ccccc1Nc1cc(Nc2ccc(N3CCOCC3)cc2OC)ncc1C(F)(F)F [VS-4718] | 5.6 | 11.4 | 6 | 11.6 | 4.1 | 4.4 | 6.8 | 6.1 | 5.5 | 9.2 | 8 | 3.6
CCCC(CCC)C(=O)O [Valproic acid] | 0 | 0 | 0 | 0 | 0 | 0 | 0 | 0 | 0 | 0 | 0 | 0
CCCCC(=O)OCC(=O)[C@]1(O)Cc2c(O)c3c(c(O)c2[C@@H](O[C@H]2C[C@H](NC(=O)C(F)(F)F)[C@H](O)[C@H](C)O2)C1)C(=O)c1c(OC)cccc1C3=O [Valrubicin] | 4.4 | 10.9 | 8.3 | 6.6 | 2.4 | 9.5 | 3.8 | 10.8 | 6.6 | 7.7 | 6.2 | 10.1
COc1cc2/c(=N/c3ccc(Br)cc3F)nc[nH]c2cc1OCC1CCN(C)CC1 [Vandetanib] | 0.6 | 4.7 | 0 | 2.9 | 1.3 | 0 | 1.2 | 1.7 | 0.6 | 0 | 1.5 | 0
CCc1c(C(=O)C(N)=O)c2c(OCC(=O)O)cccc2n1Cc1ccccc1 [Varespladib] | 0 | 0 | 0 | 0 | 0 | 0 | 0 | 0 | 0.1 | 0 | 0 | 0
C[C@@H]1COC(Nc2ccc3ncnc(Nc4ccc(OCc5nccs5)c(Cl)c4)c3c2)=N1 [Varlitinib] | 0 | 0.3 | 0.2 | 0.4 | 0 | 5.4 | 1.9 | 3.2 | 0 | 0 | 4.1 | 0.4
Clc1ccc(Nc2nnc(Cc3ccncc3)c3ccccc23)cc1 [Vatalanib] | 0 | 0.7 | 0 | 0 | 0 | 0 | 0 | 0 | 0 | 0 | 0 | 0
C[C@]1(c2nc3c(C(N)=O)cccc3[nH]2)CCCN1 [Veliparib] | 0 | 0.4 | 0 | 0 | 0 | 0.2 | 0 | 0 | 0 | 0.7 | 1.3 | 0
CCCS(=O)(=O)Nc1ccc(F)c(C(=O)c2c[nH]c3ncc(-c4ccc(Cl)cc4)cc23)c1F [Vemurafenib] | 0 | 0 | 1.1 | 0.3 | 0 | 0.5 | 0 | 0 | 0 | 0 | 0.5 | 0.4
CC1(C)CCC(CN2CCN(c3ccc(C(=O)NS(=O)(=O)c4ccc(NCC5CCOCC5)c([N+](=O)[O-])c4)c(Oc4cnc5[nH]ccc5c4)c3)CC2)=C(c2ccc(Cl)cc2)C1 [Venetoclax] | 0 | 0 | 0 | 0 | 0 | 0 | 0 | 0 | 2.8 | 0 | 0 | 0
O=C(/C=C\n1cnc(-c2cc(C(F)(F)F)cc(C(F)(F)F)c2)n1)NNc1ccccn1 [Verdinexor] | 3.6 | 7.6 | 6.1 | 3.1 | 4.7 | 10.9 | 5.4 | 9.2 | 7 | 5.1 | 7.5 | 22.2
CCCCOc1nc(N)c2c(n1)N(Cc1cccc(CN3CCCC3)c1)CC(=O)N2 [Vesatolimod] | 0 | 0 | 0 | 1 | 0 | 0 | 0.4 | 0 | 0 | 0 | 0 | 0
COc1cccc(-c2ccc(NC(=O)C3=C(C(=O)O)CCC3)c(F)c2)c1 [Vidofludimus] | 0 | 0.2 | 3.9 | 0 | 0 | 2.1 | 0 | 0 | 0.1 | 0 | 0 | 6
CC[C@]1(O)C[C@@H]2CN(CCc3c([nH]c4ccccc34)[C@@](C(=O)OC)(c3cc4c(cc3OC)N(C)[C@H]3[C@@](O)(C(=O)OC)[C@H](OC(C)=O)[C@]5(CC)C=CCN6CC[C@]43[C@@H]65)C2)C1 [Vinblastine] | 1.1 | 5.3 | 12.3 | 4.4 | 2.3 | 8.6 | 9.1 | 22.4 | 3.7 | 18.5 | 3 | 13.8
CC[C@]1(O)C[C@H]2CN(CCc3c([nH]c4ccccc34)[C@@](C(=O)OC)(c3cc4c(cc3OC)N(C=O)[C@H]3[C@@](O)(C(=O)OC)[C@H](OC(C)=O)[C@]5(CC)C=CCN6CC[C@]43[C@@H]65)C2)C1 [Vincristine] | 1.9 | 5.9 | 17.7 | 3.1 | 3.3 | 8.9 | 6.6 | 21.3 | 2.7 | 16.9 | 4.5 | 16.3
